Test system: Gaeumannomyces graminis var. tritici (Ggt)
Experiment: In vitro Assay: mycelial growth of Ggt on minimal media agar plates containing test compound
Assay type: cell-based
Conditions: dark, 19-20° C., 4 to 5 days, diameter of mycelial growth; for inhibition at 0.1 ppm / inhibition at 1 ppm / inhibition at 10 ppm: Gaeumannomyces graminis; for inhibition at 0.1 ppm: read-out: In vitro (ppm) 0.1, Percent Inhibition; for inhibition at 1 ppm: read-out: In vitro (ppm) 1, Percent Inhibition; for inhibition at 10 ppm: read-out: In vitro (ppm) 10, Percent Inhibition
Procedure: The test compounds (0.25 mL of an appropriate stock solution in acetone) are incorporated into 25 mL minimal media agar [(prepared by autoclaving a solution of 17.5 g Czapek Dox broth (Difco), 7.5 g purified agar or Bacto-agar (Difco), and 500 mL distilled/deionized water, and then adding 50 μL of 1 mg/mL thiamine hydrochloride and 50 μL of 1 mg/mL biotin in 5% ethanol] and plates are prepared.
Each plate is inoculated by placing in a triangular shape three 4-mm plugs of Gaeumannomyces graminis var. tritici (Ggt) grown on the minimal media agar described above. The plates are incubated in the dark at 19-20° C. for 4 to 5 days. The growth of the fungus is measured as the diameter of the mycelial growth. The result is expressed as Percent Inhibition, calculated as [1-[(mm growth on treated plate −4)/(mm growth on control plate −4)]]×100.

| SMILES | In vitro (ppm) 0.1, Percent Inhibition (0.1 ppm in minimal media agar) | In vitro (ppm) 1, Percent Inhibition (1 ppm in minimal media agar) | In vitro (ppm) 10, Percent Inhibition (10 ppm in minimal media agar) | inhibition at 0.1 ppm (0.1 ppm in minimal media agar) | inhibition at 1 ppm (1 ppm in minimal media agar) | inhibition at 10 ppm (10 ppm in minimal media agar) |
| --- | --- | --- | --- | --- | --- | --- |
| CC(C)N(O)C(=O)c1c(Cl)cccc1[Si](C)(C)C.[Fe+3].[OH-].[OH-].[OH-] [Example 168, 2-Chloro-N-hydroxy-N-(1-methylethyl)-6-(trimethylsilyl)benzamide, compd. with iron hydroxide (1:1)] | 57% | 96% | 100% |  |  |  |
| CCNC(=O)c1cc([N+](=O)[O-])ccc1[Si](C)(C)C [Example 214, N-Ethyl-5-nitro-2-(trimethylsilyl)benzamide] |  |  |  | 3% | 6% | 77% |
| C[Si](C)(C)c1cccc(Cl)c1C(=O)NCc1ccc(C(F)(F)F)cc1 [Example 102, 2-Chloro-N-[[4-(trifluoromethyl)phenyl]-methyl]-6-(trimethylsilyl)-benzamide] |  |  |  | 28% | 52% | 28% |
| CC1C=CC(C)N1C(=O)c1c(Cl)cccc1[Si](C)(C)C (stereo not drawn) [Example 149, 1-[2-Chloro-6-(trimethylsilyl)benzoyl)-2,5-dihydro-2,5-dimethyl-1H-pyrrole] |  |  |  | < 0% | < 0% | 80% |
| CCc1cccc([Si](C)(C)C)c1C(=O)N(CC)CC [Example 44, N,N,2-Triethyl-6-(trimethylsilyl)benzamide] |  |  |  | < 0% | < 0% | 39% |
| CCNC(=O)c1sc(SC)cc1[Si](C)(C)C [Example 261, N-Ethyl-5-(methylthio)-3-(trimethylsilyl)-2-thiophenecarboxamide] |  |  |  | 14% | 25% | 78% |
| CCN(C(=O)c1ccccc1C(C)(C)C)C(OC)C(C)(C)C (stereo not drawn) [Example 186, 2-(1,1-Dimethylethyl)-N-ethyl-N-(1-methoxy-2,2-dimethylpropyl)benzamide] |  |  |  | < 0% | < 0% | 67% |
| CCNC(=O)c1c(F)cccc1S(=O)(=O)C(C)(C)C [Example 280, 2-[(1,1-Dimethylethyl)sulfonyl]-N-ethyl-6-fluorobenzamide] |  |  |  | 24% | 21% | 38% |
| CCNC(=O)c1c([Si](C)(C)C)ccc(SC)c1Cl [Example 231, 2-Chloro-N-ethyl-3-(methylthio)-6-(trimethylsilyl)benzamide] |  |  |  | < 0% | 76% | 96% |
| CCNC(=O)c1c(Cl)cc(C(C)(C)C)cc1[Si](C)(C)C [Example 235, 2-Chloro-4-(1,1-dimethylethyl)-N-ethyl-6-(trimethylsilyl)benzamide] |  |  |  | 3% | < 0% | 70% |
| CC1CCCC(C)N1C(=O)c1c(Cl)cccc1[Si](C)(C)C (stereo not drawn) [Example 131, N-[2-Chloro-6-(trimethylsilyl)benzoyl]-2,6-dimethylpiperidine] |  |  |  | < 0% | 6% | 3% |
| CCNC(=O)c1c([Si](C)(C)C)ccc(C#C[Si](C)(C)C)c1Cl [Example 276, 2-Chloro-N-ethyl-6-(trimethylsilyl)-3-[(trimethylsilyl)ethynyl]benzamide] |  |  |  | < 0% | 63% | 84% |
| CCNC(=O)c1cnn(C)c1[Si](C)(C)C [Example 288, N-Ethyl-1-methyl-5-(trimethylsilyl)-1H-pyrazole-4-carboxamide] |  |  |  | < 0% | < 0% | 53% |
| C=Cc1ccc([Si](C)(C)C)c(C(=O)NCC)c1Cl [Example 277, 2-Chloro-3-ethenyl-N-ethyl-6-(trimethylsilyl)benzamide] |  |  |  | 69% | 81% | 94% |
| CCNC(=O)Nc1c(Cl)cccc1[Si](C)(C)C [Example 110, N-[2-Chloro-6-(trimethylsilyl)phenyl]-N′-ethylurea] |  |  |  | 7% | 17% | 45% |

Reference: patent publication US6410558B1, “Fungicides for the control of take-all disease of plants” (Monsanto Technology LLC, priority 1991, dated 2002)
